Measurements taken from paper PMC2952919, “Error-Prone Translesion DNA Synthesis by Escherichia coli DNA Polymerase IV (DinB) on Templates Containing 1,2-dihydro-2-oxoadenine” (Journal of Nucleic Acids, 2010).

Molecular target: T1, Pol IV (DinB; HT-dinB) (Escherichia coli, UniProt Q47155)
T1 construct: full-length DinB with His tag (plasmid pET16B-DinB), expressed in E. coli BL21(DE3)/pLysS; tag kept
T1 sequence (Q47155 1-351): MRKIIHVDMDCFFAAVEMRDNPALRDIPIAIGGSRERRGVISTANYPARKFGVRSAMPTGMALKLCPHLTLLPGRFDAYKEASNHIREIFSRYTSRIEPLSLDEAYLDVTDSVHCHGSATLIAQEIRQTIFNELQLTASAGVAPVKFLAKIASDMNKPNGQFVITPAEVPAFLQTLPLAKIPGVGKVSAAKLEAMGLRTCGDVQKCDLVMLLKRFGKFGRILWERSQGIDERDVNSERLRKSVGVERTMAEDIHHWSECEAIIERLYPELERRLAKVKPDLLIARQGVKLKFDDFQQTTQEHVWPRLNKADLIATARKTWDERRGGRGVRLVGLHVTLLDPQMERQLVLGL
Experiment: primer extension, […]-labelled primer, gel imaging
Assay type: biochemical
Details: insertion opposite 2-oxodA (primer 3/template 2, 50 fmol in 10 μl); Pol IV 50 nM; 20°C, 60 min; pH 7.4, 7.5 mM MgCl2; dNTP 0.02~500 μM; printed Km unit is implausible (a rate unit)

Row | Km [fmol/mL/min] | Compound
1 | 8.5 | Nc1ccn([C@H]2C[C@H](O)[C@@H](COP(=O)(O)OP(=O)(O)OP(=O)(O)O)O2)c(=O)n1 [dCTP]
2 | 25.6 | Cc1cn([C@H]2C[C@H](O)[C@@H](COP(=O)(O)OP(=O)(O)OP(=O)(O)O)O2)c(=O)[nH]c1=O [dTTP]
